{
  "source": "patent US20090170923A1",
  "about": "“HCV INHIBITORS” (priority 2004, published 2009)",
  "note": "pIC50: −log10 of the molar value. Where a name gives a salt, the structure may show the parent alone.",
  "data": [
    {"test_system": "HCV genotype 1b strain Con1 replicon (ET replicon line, Huh7 cells)", "assay": "HCV ET replicon luciferase assay", "type": "cell-based", "conditions": "Hepatitis C virus, Huh-7; Huh7 cells stably transfected with HCV genotype 1b Con1 replicon; firefly luciferase readout; 72 hours incubation", "protocol": "Compounds of the current invention are believed useful in the treatment and/or prophylaxis of conditions and diseases associated with HcV infection. Activity mediated through HCV was determined using an ET replicon line.\nThe Materials used include a Medium comprised of DMEM (IX liquid, high glucose); Invitrogen cat #11965-092; 100× Penicillin/Streptomycin solution (10,000 Units/mL); Invitrogen cat #15140-122; 100× Non-essential amino acid solution (10 mM); Invitrogen cat #11140-050; Fetal bovine serum; JRH Biosciences cat #12107-500M; Geneticin (50 mg/mL); Invitrogen cat #10131-035\nThe Luciferase assay reagents include Steady-Glo Luciferase assay system, cat # E2550 (Promega)\nThe ET replicon line (see Lohmann et al. (1999), Replication of subgenomic hepatitis C virus RNAs in a hepatoma cell line. Science 285: 110-113; Krieger et al. (2001), Enhancement of hepatitis C virus RNA replication by cell culture-adaptive mutations. J. Virol. 75: 4614-4624; and Vrolijk et al. (2003), A replicon-based bioassay for the measurement of interferons in patients with chronic hepatitis C. J. Virol. Meth. 110: 201-209, each herein incorporated by reference with regard to the ET replicon line), includes Huh7 cells stably transfected with HCV genotype 1b strain Con1 replicon. This replicon expresses the firefly luciferase, has the coding region for ubiquitin inserted upstream of the neomycin gene, and carries three cell culture-adaptive mutations that enhance RNA replication cooperatively (E1202G, T1280I, and S2197P). The ET cell line was obtained under licence from: ReBLikon GmbH, Nach dem alten Schloss 22, 55239 Gau-Odernheim, Germany. […]\nCells are grown to approximately 80% confluency and trypsinised as described above. Cells are counted in a Levy Hemocytometer and diluted to 20,000 cells/ml in DMEM containing 10% FBS, 1× penicillin/streptomycin, 1×NEAAs. […]\n245 μL cell suspension is added to the first 11 columns of the daughter plates prepared as above using a Multidrop dispenser (Titertek). […] The twelfth column of each plate is used to generate background readings for the assay. […]", "values": [
      {"smiles": "Brc1ccc2[nH]c3c(c2c1)CCC[C@H]3NC1Cc2ccccc2C1", "note": "[Example 27, (1R)-6-Bromo-N-(2,3-dihydro-1H-inden-2-yl)-2,3,4,9-tetrahydro-1H-carbazol-1-amine hydrochloride salt]", "pIC50": 7.27},
      {"smiles": "C[C@@H](N[C@@H]1CCCc2c1[nH]c1ccc(Br)cc21)c1ccccc1", "note": "[Example 31, (1R)-6-bromo-N-[(1R)-1-phenylethyl]-2,3,4,9-tetrahydro-1H-carbazol-1-amine Hydrochloride Salt]", "pIC50": 7.89},
      {"smiles": "C[C@H](N[C@@H]1CCCc2c1[nH]c1ccc(Br)cc21)c1ccccc1", "note": "[Example 36, (1R)-6-Bromo-N-[(1S)-1-phenylethyl]-2,3,4,9-tetrahydro-1H-carbazol-1-amine Hydrochloride Salt]", "pIC50": 8.10}
    ]}
  ]
}
